Laboratory results published in the supplement of paper PMC10307832.

Experiments:
Assay in all cases: relative viability (nuclei count vs DMSO), 5 days (fraction); higher = more cells survive
Bicalutamide + OSI-027 = compound: CC(O)(CS(=O)(=O)c1ccc(F)cc1)C(=O)Nc1ccc(C#N)c(C(F)(F)F)c1 [Bicalutamide] + COc1cccc2cc(-c3nc([C@H]4CC[C@H](C(=O)O)CC4)n4ncnc(N)c34)[nH]c12 [OSI-027] (partner 0.5 µM)
Procedure, shortened: (§1)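 One day after seeding in 1536-well plates, lung cancer cell lines were dosed by pin tool. Dosing was either single-drug or a fixed anchor-drug dose plus five library-drug doses (not always all listed) in √10 steps. After 5 days, nuclei were stained in one fix-and-stain step and counted on 4× images, and relative viability is the nuclei count of treated wells over that of vehicle wells, given as the median of duplicate plates.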

[1] = compound: C(C(=O)C(=O)O)Br [Bromopyruvate] + Nc1nc2[nH]cc(CCc3ccc(C(=O)N[C@@H](CCC(=O)O)C(=O)O)cc3)c2c(=O)[nH]1 [Pemetrexed] (partner 0.2 µM)
Procedure, shortened: as §1

[2] = compound: C(C(=O)C(=O)O)Br [Bromopyruvate] + C[C@@H](Oc1cc(-c2cnn(C3CCNCC3)c2)cnc1N)c1c(Cl)ccc(F)c1Cl [Crizotinib] (partner 1 µM)
Procedure, shortened: as §1

[3] = compound: C(C(=O)C(=O)O)Br [Bromopyruvate] + CCNC(=O)c1noc(-c2cc(C(C)C)c(O)cc2O)c1-c1ccc(CN2CCOCC2)cc1 [Luminespib] (partner 0.01 µM)
Procedure, shortened: as §1

| Cell Line | relative viability (Bicalutamide + OSI-027; first compound 0.08 µM) | relative viability (Bicalutamide + OSI-027; first compound 0.253 µM) | relative viability (Bicalutamide + OSI-027; first compound 0.8 µM) | relative viability (Bicalutamide + OSI-027; first compound 2.53 µM) | relative viability ([1]; first compound 1 µM) | relative viability ([1]; first compound 3.162 µM) | relative viability ([1]; first compound 10 µM) | relative viability ([1]; first compound 31.62 µM) | relative viability ([1]; first compound 100 µM) | relative viability ([2]; first compound 1 µM) | relative viability ([2]; first compound 3.162 µM) | relative viability ([2]; first compound 10 µM) | relative viability ([2]; first compound 31.62 µM) | relative viability ([2]; first compound 100 µM) | relative viability ([3]; first compound 1 µM) | relative viability ([3]; first compound 3.162 µM) | relative viability ([3]; first compound 10 µM) | relative viability ([3]; first compound 31.62 µM) | relative viability ([3]; first compound 100 µM) |
| --- | --- | --- | --- | --- | --- | --- | --- | --- | --- | --- | --- | --- | --- | --- | --- | --- | --- | --- | --- |
| HCC-827 | 0.795 | 0.697 | 0.86 | 0.751 | 0.26 | 0.247 | 0.26 | 0.262 | 0.266 | 0.939 | 0.919 | 0.931 | 0.999 | 0.964 | 0.684 | 0.607 | 1.01 | 0.886 | 0.619 |
| HOP-62 | 0.927 | 0.844 | 0.956 | 0.785 | 0.302 | 0.321 | 0.326 | 0.356 | 0.207 | 0.923 | 0.876 | – | 0.952 | 0.65 | 0.887 | 0.97 | 0.84 | 0.934 | 0.9 |
| IA-LM | – | – | – | – | – | – | – | – | – | 0.642 | 0.796 | 0.634 | 0.789 | 0.522 | – | – | – | – | – |
| LC-2-ad | 0.962 | 0.718 | 0.885 | 0.684 | 0.294 | 0.287 | 0.269 | 0.298 | 0.298 | 0.218 | 0.47 | 0.458 | 0.52 | 0.469 | 1.02 | 1.11 | 1.21 | 1.04 | 0.843 |
| LCLC-97TM1 | 0.598 | 0.37 | 0.627 | 0.422 | 0.182 | 0.152 | 0.187 | 0.164 | 0.195 | – | – | 0.377 | 0.427 | 0.186 | 0.727 | 0.792 | 0.864 | 0.708 | 0.709 |
| LCLC-103H | 0.464 | 0.425 | 0.476 | 0.451 | 0.468 | 0.465 | 0.472 | 0.446 | 0.48 | 1.02 | 1.06 | 1.05 | 1.14 | 1.2 | 0.963 | 0.998 | 1.05 | 0.938 | 0.878 |
| LK-2 | 0.195 | 0.189 | 0.194 | 0.207 | 0.346 | 0.23 | 0.312 | 0.237 | 0.261 | 0.292 | 0.238 | 0.207 | 0.223 | 0.257 | 0.166 | 0.182 | 0.158 | 0.161 | 0.199 |
| LOU-NH91 | 0.768 | 0.659 | 0.736 | 0.726 | 0.402 | 0.371 | 0.366 | 0.402 | 0.443 | 0.769 | 0.708 | 0.712 | 0.76 | 0.724 | 0.321 | 0.316 | 0.372 | 0.348 | 0.321 |
| LU99A | 0.282 | 0.258 | 0.345 | 0.233 | 0.178 | 0.21 | 0.169 | 0.202 | 0.165 | 0.488 | 0.689 | 0.591 | 0.554 | 0.672 | 0.301 | 0.313 | 0.273 | 0.248 | 0.213 |
| LXF-289 | 0.816 | 0.725 | 0.851 | 0.672 | 0.874 | 0.92 | 0.899 | 0.958 | 0.941 | 0.841 | 0.807 | 0.786 | 0.791 | 0.833 | 0.744 | 0.71 | 0.779 | 0.808 | 0.753 |
| NCI-H23 | 0.721 | 0.544 | 0.605 | 0.495 | 0.71 | 0.76 | 0.808 | 0.619 | 0.812 | 0.386 | 0.514 | 0.514 | 0.494 | 0.423 | 0.216 | 0.182 | 0.238 | 0.203 | 0.201 |
| NCI-H322M | 0.6 | 0.524 | 0.568 | 0.474 | 0.614 | 0.663 | 0.592 | 0.585 | 0.637 | 0.958 | 0.804 | 0.948 | 0.806 | 0.943 | 0.821 | 0.977 | 0.891 | 0.879 | 0.747 |
| NCI-H522 | 0.726 | 0.685 | 0.775 | 0.641 | 0.902 | 1.25 | 1.24 | 1.07 | 1.11 | – | – | – | – | – | 1.07 | 1.16 | 1.11 | 1.28 | 1.29 |
| NCI-H727 | 0.573 | 0.546 | 0.623 | 0.442 | – | – | – | – | – | 0.996 | 0.89 | 0.844 | 0.739 | 0.83 | 0.277 | 0.571 | 0.218 | 0.377 | 0.592 |
| NCI-H1299 | – | – | – | – | – | – | – | – | – | 0.933 | 0.994 | 0.995 | 0.945 | 0.957 | – | – | – | – | – |
| NCI-H1395 | 0.781 | 0.538 | 0.76 | 0.454 | 0.978 | 0.917 | 0.884 | 0.847 | 0.928 | – | – | – | – | – | 0.661 | 0.705 | 0.932 | 0.754 | 0.992 |
| NCI-H1648 | – | 0.299 | 0.29 | 0.225 | 0.661 | 0.813 | 0.689 | 0.651 | 0.728 | – | – | – | – | – | – | – | – | – | – |
| NCI-H1703 | – | – | – | – | – | – | – | – | – | 0.736 | 0.946 | 0.589 | 0.862 | 0.75 | – | – | – | – | – |
| NCI-H1793 | 0.278 | 0.238 | 0.302 | 0.269 | 0.91 | 1.18 | 0.989 | 0.906 | 1.16 | – | – | – | – | – | 0.207 | 0.148 | 0.145 | 0.218 | 0.303 |
| NCI-H2342 | 0.629 | 0.593 | 0.63 | 0.551 | 0.848 | 0.779 | 0.847 | 0.636 | 0.74 | – | – | – | – | – | 0.756 | 0.775 | 0.661 | 0.57 | 0.531 |
| SW 900 | 0.498 | 0.531 | 0.572 | 0.347 | 0.487 | 0.463 | 0.555 | 0.446 | 0.472 | – | – | – | – | – | 0.16 | 0.173 | 0.197 | 0.166 | 0.21 |
